# Measurements published in patent publication US20240270699A1, “COMPOUNDS HAVING N-ARYLPYRIMIDIN-2-AMINE DERIVATIVES AS THERAPEUTIC AGENTS” (Lomond Therapeutics, Inc., priority 2021, published 2024).
# Columns and labels:
# recombinant HPK1 protein = molecular target: T1, recombinant HPK1 protein (Homo sapiens, UniProt Q92918); assay: Primary assay of HPK1 enzymatic activity inhibition (ADP-Glo luminescence); assay type: biochemical; settings: recombinant HPK1, MBP substrate, 1 hour at room temperature
# T1 construct: purchased Promega V6398
# T1 sequence (Q92918 1-346 limits assumed): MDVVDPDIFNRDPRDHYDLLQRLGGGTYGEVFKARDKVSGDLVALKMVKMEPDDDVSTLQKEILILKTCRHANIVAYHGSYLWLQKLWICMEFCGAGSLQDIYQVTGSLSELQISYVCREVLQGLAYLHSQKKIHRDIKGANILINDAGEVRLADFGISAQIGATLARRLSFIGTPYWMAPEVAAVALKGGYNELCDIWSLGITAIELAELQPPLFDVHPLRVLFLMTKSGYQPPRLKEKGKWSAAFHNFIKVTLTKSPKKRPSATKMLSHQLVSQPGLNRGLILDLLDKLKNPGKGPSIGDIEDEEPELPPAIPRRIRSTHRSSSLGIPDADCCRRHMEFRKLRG
# Jurkat cells = assay: IL-2 release Jurkat assay (anti-CD3/anti-CD28 stimulation, IL-2 ELISA); assay type: cell-based, human; settings: activation with 400 ng/mL aCD3 + 400 ng/mL aCD28, 24 hours
# [1] = Table C: Jurkat, 6 μM of tested compounds, stimulated vehicle = A
# [2] = Table B: Jurkat, 1.5 μM of tested compounds
# [3] = Table D: Jurkat, 6 μM of tested compounds, stimulated vehicle = B
# [4] = Table E: Jurkat, 1.5 μM of tested compounds
IC50 (recombinant HPK1 protein),Compound,"IL-2, pg/mL stimulated (Jurkat cells; [1])","IL-2, pg/mL stimulated (Jurkat cells; [2])","IL-2, pg/mL stimulated (Jurkat cells; [3])","IL-2, pg/mL stimulated (Jurkat cells; [4])"
50 to 200 nM,"CCOC(=O)c1cnc(Nc2ccc(S(C)(=O)=O)cc2F)nc1N[C@H](CO)c1ccccc1 [Compound 211, Ethyl 2-{[2-fluoro-4-(methylsulfonyl)phenyl]amino}-4-{[(1S)-2-hydroxy-1-phenylethyl]amino}pyrimidine-5-carboxylate]",B (50 pg/mL≤IL-2<100 pg/mL),–,–,–
50 to 200 nM,"CC(C)NC(=O)c1cnc(Nc2ccc3c(c2)CCN(C)C3=O)nc1N[C@H](CO)c1ccccc1 [Compound 212, 4-{[(1S)-2-hydroxy-1-phenylethyl]amino}-2-[(2-methyl-1-oxo-1,2,3,4-tetrahydroisoquinolin-6-yl)amino]-N-(propan-2-yl)pyrimidine-5-carboxamide]",–,C (25.0 pg/mL≤IL-2<35.0 pg/mL),–,–
50 to 200 nM,"CCOC(=O)c1cnc(Nc2ccc3c(c2)CCN(CC)C3=O)nc1N[C@H](CO)c1ccccc1 [Compound 218, Ethyl 2-[(2-ethyl-1-oxo-3,4-dihydroisoquinolin-6-yl)amino]-4-[[(1S)-2-hydroxy-1-phenyl-ethyl]amino]pyrimidine-5-carboxylate]",D (150 pg/mL≤IL-2),–,–,–
200 to 500 nM,"CCOC(=O)c1cnc(Nc2ccc(C(=O)N(C)C)c(Cl)c2)nc1N[C@H](CO)c1ccccc1 [Compound 266, Ethyl 2-[3-chloro-4-(dimethylcarbamoyl)anilino]-4-[[(1S)-2-hydroxy-1-phenyl-ethyl]amino]pyrimidine-5-carboxylate]",C (100 pg/mL≤IL-2<150 pg/mL),–,–,–
50 to 200 nM,"Cc1cc(Nc2ncc(C(=O)NC(C)C)c(N[C@H](CO)c3ccccc3)n2)ccc1S(C)(=O)=O [Compound 267, 4-{[(1S)-2-hydroxy-1-phenylethyl]amino}-2-{[3-methyl-4-(methylsulfonyl)phenyl]amino}-N-(propan-2-yl)pyrimidine-5-carboxamide]",–,D (35.0 pg/mL≤IL-2),–,–
200 to 500 nM,"CCOC(=O)c1cnc(Nc2ccc(S(=O)(=O)C(C)C)cc2)nc1N[C@H](CO)c1ccccc1 [Compound 274, Ethyl 4-{[(1S)-2-hydroxy-1-phenylethyl]amino}-2-{[4-(propan-2-ylsulfonyl)phenyl]amino}pyrimidine-5-carboxylate]",B (50 pg/mL≤IL-2<100 pg/mL),–,–,–
200 to 500 nM,"CC(C)NC(=O)c1cnc(Nc2ccc(F)c(-c3ccccc3)c2)nc1N[C@H](CO)c1ccccc1 [Compound 293, 2-[(6-fluorobiphenyl-3-yl)amino]-4-{[(1S)-2-hydroxy-1-phenylethyl]-amino}-N-(propan-2-yl)pyrimidine-5-carboxamide]",–,D (35.0 pg/mL≤IL-2),–,–
50 to 200 nM,"CCOC(=O)c1cnc(Nc2ccc(S(C)(=O)=O)c(OC)c2)nc1N[C@H](CO)c1ccccc1 [Compound 300, Ethyl 4-{[(1S)-2-hydroxy-1-phenylethyl]amino}-2-{[3-methoxy-4-(methylsulfonyl)phenyl]amino}pyrimidine-5-carboxylate]",A (IL-2<50 pg/mL),–,–,–
200 to 500 nM,"CC(C)NC(=O)c1cnc(Nc2ccc(S(C)(=O)=O)c(F)c2)nc1N[C@H](CO)c1ccccc1 [Compound 301, 2-{[3-fluoro-4-(methylsulfonyl)phenyl]amino}-4-{[(1S)-2-hydroxy-1-phenylethyl]amino}-N-(propan-2-yl)pyrimidine-5-carboxamide]",–,A (IL-2<5.0 pg/mL),–,–
< 50 nM,CS(=O)(=O)c1ccc(Nc2ncc(C(=O)OCCO)c(N[C@H](CO)c3ccccc3)n2)cc1F [Compound 319],D (150 pg/mL≤IL-2),–,–,–
200 to 500 nM,"COCCNC(=O)c1cnc(Nc2ccc(S(C)(=O)=O)c(C)c2)nc1N[C@H](CO)c1ccccc1 [Compound 372, 4-[[(1S)-2-hydroxy-1-phenyl-ethyl]amino]-N-(2-methoxyethyl)-2-(3-methyl-4-methylsulfonyl-anilino)pyrimidine-5-carboxamide]",C (100 pg/mL≤IL-2<150 pg/mL),–,–,–
50 to 200 nM,"CN1CCc2cc(Nc3ncc(C(=O)NC4CCCC4)c(N[C@H](CO)c4ccccc4)n3)ccc2C1=O [Compound 389, N-cyclopentyl-4-{[(1S)-2-hydroxy-1-phenylethyl]amino}-2-[(2-methyl-1-oxo-1,2,3,4-tetrahydroisoquinolin-6-yl)amino]pyrimidine-5-carboxamide]",–,C (25.0 pg/mL≤IL-2<35.0 pg/mL),–,–
50 to 200 nM,"COCCNC(=O)c1cnc(Nc2ccc(S(C)(=O)=O)c(F)c2)nc1N[C@H](CO)c1ccccc1 [Compound 401, 2-(3-fluoro-4-methylsulfonyl-anilino)-4-[[(1S)-2-hydroxy-1-phenyl-ethyl]amino]-N-(2-methoxyethyl)-pyrimidine-5-carboxamide]",A (IL-2<50 pg/mL),–,–,–
200 to 500 nM,"Cc1cc(Nc2ncc(C(=O)NC3CCCC3)c(N[C@H](CO)c3ccccc3)n2)ccc1S(C)(=O)=O [Compound 434, N-cyclopentyl-4-{[(1S)-2-hydroxy-1-phenylethyl]amino}-2-{[3-methyl-4-(methylsulfonyl)phenyl]amino}pyrimidine-5-carboxamide]",–,B (5.0 pg/mL≤IL-2<25.0 pg/mL),–,–
< 50 nM,"Cc1cc(Nc2ncc(C(=O)NCC(F)(F)F)c(N[C@H](CO)c3ccccc3)n2)ccc1S(C)(=O)=O [Compound 490, 4-{[(1S)-2-hydroxy-1-phenylethyl]amino}-2-{[3-methyl-4-(methylsulfonyl)phenyl]amino}-N-(2,2,2-trifluoroethyl)pyrimidine-5-carboxamide]",–,B (5.0 pg/mL≤IL-2<25.0 pg/mL),–,–
200 to 500 nM,"O=C(NCC(F)(F)F)c1cnc(Nc2ccc(F)c(-c3ccccc3)c2)nc1N[C@H](CO)c1ccccc1 [Compound 499, 2-[(6-fluorobiphenyl-3-yl)amino]-4-{[(1S)-2-hydroxy-1-phenylethyl]-amino}-N-(2,2,2-trifluoroethyl)pyrimidine-5-carboxamide]",–,C (25.0 pg/mL≤IL-2<35.0 pg/mL),–,–
< 50 nM,"CCOC(=O)c1cnc(Nc2ccc(C(N)=O)c(Cl)c2)nc1N[C@H](CO)c1ccccc1 [Compound 559, Ethyl 2-(4-carbamoyl-3-chloro-anilino)-4-[[(1S)-2-hydroxy-1-phenyl-ethyl]amino]pyrimidine-5-carboxylate]",–,–,D (150 pg/mL≤IL-2),–
50 to 200 nM,"CCOC(=O)c1cnc(Nc2ccc(C(=O)NC)c(Cl)c2)nc1N[C@H](CO)c1ccccc1 [Compound 560, Ethyl 2-[3-chloro-4-(methylcarbamoyl)anilino]-4-[[(1S)-2-hydroxy-1-phenyl-ethyl]amino]pyrimidine-5-carboxylate]",–,–,D (150 pg/mL≤IL-2),–
50 to 200 nM,"CCOC(=O)CCCCCc1nnc(-c2cnc(Nc3ccc(S(C)(=O)=O)c(C)c3)nc2N[C@H](CO)c2ccccc2)o1 [Compound 561, Ethyl 6-[5-[4-[[(1S)-2-hydroxy-1-phenyl-ethyl]amino]-2-(3-methyl-4-methylsulfonyl-anilino)pyrimidin-5-yl]-1,3,4-oxadiazol-2-yl]hexanoate]",–,–,B (50 pg/mL≤IL-2<100 pg/mL),–
< 50 nM,"CS(=O)(=O)c1cnc(Nc2ccc3c(c2)CCNC3=O)nc1N[C@H](CO)c1ccccc1 [Compound 564, 6-[[4-[[(1S)-2-hydroxy-1-phenyl-ethyl]amino]-5-methylsulfonyl-pyrimidin-2-yl]amino]-3,4-dihydro-2H-isoquinolin-1-one]",–,B (5.0 pg/mL≤IL-2<25.0 pg/mL),–,–
< 50 nM,"CCOC(=O)c1cnc(Nc2ccc3c(c2)CCCNC3=O)nc1N[C@H](CO)c1ccccc1 [Compound 566, ethyl 4-[[(1S)-2-hydroxy-1-phenyl-ethyl]amino]-2-[(1-oxo-2,3,4,5-tetrahydro-2-benzazepin-7-yl)amino]pyrimidine-5-carboxylate]",–,–,–,D (150 pg/mL≤IL-2)
50 to 200 nM,"CCOC(=O)c1cnc(Nc2ccc3c(c2)CCNC3=O)nc1N[C@@H](CO)c1ccccc1 [Compound 568, ethyl 4-[[(1R)-2-hydroxy-1-phenyl-ethyl]amino]-2-[(1-oxo-3,4-dihydro-2H-isoquinolin-6-yl)amino]pyrimidine-5-carobxylate]",–,A (IL-2<5.0 pg/mL),–,–
< 50 nM,"CCOC(=O)c1cnc(Nc2ccc3c(c2)CCNC3=O)nc1N[C@H](CO)c1ccc(OC)cc1 [Compound 569, ethyl 4-[[(1S)-2-hydroxy-1-(4-methoxyphenyl)ethyl]amino]-2-[(1-oxo-3,4-dihydro-2H-isoquinolin-6-yl)amino]pyrimidine-5-carboxylate]",–,C (25.0 pg/mL≤IL-2<35.0 pg/mL),–,–
< 50 nM,"CCOC(=O)c1cnc(Nc2ccc3c(c2)CCNC3=O)nc1N[C@H](CO)c1cccc(OC)c1 [Compound 570, ethyl 4-[[(1S)-2-hydroxy-1-(3-methoxyphenyl)ethyl]amino]-2-[(1-oxo-3,4-dihydro-2H-isoquinolin-6-yl)amino]pyrimidine-5-carboxylate]",–,B (5.0 pg/mL≤IL-2<25.0 pg/mL),–,–
< 50 nM,"CCOC(=O)c1cnc(Nc2ccc3c(c2)CCCS3(=O)=O)nc1N[C@H](CO)c1ccccc1 [Compound 573, ethyl 2-[(1,1-dioxo-3,4-dihydro-2H-thiochromen-6-yl)amino]-4-[[(1S)-2-hydroxy-1-phenyl-ethyl]amino]pyrimidine-5-carboxylate]",–,–,–,C (100 pg/mL≤IL-2<150 pg/mL)
